{"source": "patent US20130018094A1", "about": "“Prophylactic or Therapeutic Agent For Gum Disease or Apical Periodontitis” (priority 2009, published 2013)", "key": {"IL-6": {"tested_on": "IL-6", "test": "Rat apical periodontitis model: level of expression of IL-6 in the lesions by real-time PCR", "type": "in vivo", "settings": "male Wistar rats, 150 mg/kg orally twice per day, after 21 days, vs control group", "description": "(§1) An experiment was conducted using six-week-old male Wistar rats. After the pulp of the mandibular first molar was exposed using a round bar, apical periodontitis was induced by extracting the pulp and opening it inside the oral cavity. In the experimental groups, monosodium (2S,3S)-3-[[(1S)-1-isobutozymethyl-3-methylbutyl]-carbamoyl]oxirane-2-carboxylate (compound A: 150 mg/kg) was orally administered twice per day. A non-administration group was used as a control. After 21 days, the rats were euthanized and the jawbone surrounding each mandibular molar was extracted. The left side was fixed in 4% paraformaldehyde/phosphate buffer solution (PBS) (4° C., 12 hours), and then the size of the apical lesion was measured by micro-CT imaging (Shimadzu SMX-90CT). After that, it was decalcified with 15% EDTA solution and embedded in OCT compound, and frozen slices 7 μm thick were made. […] On the right side, the lesion portion surrounding the apex was extracted as a lump together with the apex, and after RNA extraction (Qiagen: RNeasy Lipid Tissue Mini Kit), cDNA was created by ordinary methods (Invitrogen: Superscript III), and the levels of expression of inflammatory cytokines (IL-1α and IL-6) were measured by real-time PCR (BioRad: DNA Engine Opticon 2; Invitrogen: Platinum SYBR Green qPCR SuperMix)."}, "IL-1α": {"tested_on": "IL-1α", "test": "Rat apical periodontitis model: level of expression of IL-1α in the lesions by real-time PCR", "type": "in vivo", "settings": "male Wistar rats, 150 mg/kg orally twice per day, after 21 days, vs control group", "description": "as §1"}, "[1]": {"tested_on": "osteoclasts on the alveolar bone surrounding the apex", "test": "Rat apical periodontitis model: histological examination (HE and TRAP staining) of osteoclasts", "type": "in vivo", "settings": "male Wistar rats, 150 mg/kg orally twice per day, after 21 days, vs control group", "description": "as §1"}, "[2]": {"tested_on": "rat experimental apical periodontitis", "test": "Rat apical periodontitis model: size of apical lesions by micro-CT", "type": "in vivo", "settings": "male Wistar rats, 150 mg/kg orally twice per day", "description": "Using a rat apical periodontitis model, pharmacological tests were conducted for monosodium (2S,3S)-3-[[(1S)-1-isobutozymethyl-3-methylbutyl]-carbamoyl]oxirane-2-carboxylate.\nas §1, with “SMX-90CT).” for “SMX-90CT). After that, it was decalcified with 15% EDTA solution and embedded in OCT compound, and frozen slices 7 μm thick were made.”"}, "cathepsin K": {"target": "T1, cathepsin K (Homo sapiens, UniProt P43235)", "T1 sequence (P43235 115-329)": "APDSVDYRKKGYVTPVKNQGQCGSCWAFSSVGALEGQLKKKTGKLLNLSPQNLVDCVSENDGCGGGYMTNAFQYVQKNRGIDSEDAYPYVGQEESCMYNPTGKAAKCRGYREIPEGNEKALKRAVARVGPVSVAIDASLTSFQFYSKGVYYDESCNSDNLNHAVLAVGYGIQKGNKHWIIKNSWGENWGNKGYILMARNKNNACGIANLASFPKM", "settings": "known from Patent Reference 4 (WO 99/11640); cited from earlier work"}}, "note": "“Also recorded” adds a separate entry of the source."}
{"smiles": "CC(C)COC[C@H](CC(C)C)NC(=O)[C@H]1O[C@@H]1C(=O)[O-].[Na+]", "note": "[compound A, monosodium (2S,3S)-3-[[(1S)-1-isobutozymethyl-3-methylbutyl]-carbamoyl]oxirane-2-carboxylate]", "values": [{"measurement": "level of expression of IL-6 in the lesions", "setting": "IL-6", "result": "significantly suppressed"}, {"measurement": "level of expression of IL-1α in the lesions", "setting": "IL-1α", "result": "significantly suppressed"}, {"measurement": "number of osteoclasts on the alveolar bone surrounding the apex (histological examination)", "setting": "[1]", "result": "their number tended to be small"}, {"measurement": "suppressive effect against progression of rat experimental apical periodontitis", "setting": "[2]; 21 days", "result": "excellent suppressive effect"}, {"measurement": "size of apical lesions by micro-CT", "setting": "[2]; after 21 days, vs control group, 150 mg/kg", "result": "smaller apical lesions were formed; also recorded: their size was smaller than in the control group"}, {"measurement": "cathepsin K inhibiting action", "setting": "cathepsin K", "result": "has a cathepsin K inhibiting action"}]}
